Laboratory results from US11661437B2, “Steroid derivative regulators, method for preparing the same, and uses thereof” (priority 2018, dated 2023).

Key:
GABA-A receptor = experiment: 35S-TBPS binding assay on rat cerebral cortex cell membrane; set-up: species or system Sprague-Dawley rat; conditions: 2 nM 35S-TBPS, GABA added, read-out: 35S-TBPS bindng test, IC50 on inhibiting the TBPS binding activity
Protocol: 1.2.1 Extraction of Cerebral Cortex Cell Membrane:
1. The cerebral cortex of male Sprague-Dawley rat was isolated.
2. A pre-chilled 0.32 M sucrose solution (one tablet of protease inhibitor was added per 100 ml) was added to the cerebral cortex (the volume of sucrose solution was 10 times the volume of the cerebral cortex). The mixture was crushed with a 50 ml glass tissue homogenizer in batches and mixed well.
3. The mixture was centrifuged at 1500 g, 4° C. for 10 minutes, and the supernatant was collected.
4. The mixture was centrifuged at 20000 g, 4° C. for 30 minutes, and the supernatant was discarded.
5. The precipitate was resuspended with the pre-chilled phosphate buffer saline (PBS) (one tablet of protease inhibitor was added per 100 ml). An average of 4 ml of PBS was added per rat, and the mixture was mixed well with a glass tissue homogenizer.
6. The mixture was centrifuged at 10000 g, 4° C. for 10 minutes, and the supernatant was discarded.
7. Steps 5 and 6 were repeated three times.
8. Finally, the precipitate was resuspended with 4 volumes of PBS. The resulting solution was dispensed, frozen in liquid nitrogen, and stored at −80° C.
9. The protein concentration was measured by the bicinchoninic acid (BCA) method.
1.2.2 ^35S-TBPS Binding Assay
1. 230 μL of PBS was added to each well of a well plate with 1.1 ml volume.
2. 60 μL of the cerebral cortex cell membrane (5 μg/μL) solution was added to each well, and the mixture was mixed well.
3. The test compound (3 μL per well) was added, and the plate was incubated at 25° C. for 5 minutes. The DMSO concentration was 1%. The initial compound concentration was 1 NM, and a 3-fold dilution in gradient was carried out to obtain a total of 8 gradients and 2 replicates. 1% DMSO was used as a negative control, and 10 μM P026-2 was used as a positive control.
4. GABA was added at a final concentration of […], and incubated at 25° C. for 5 minutes. 1 mM GABA solution was formulated, and 1.5 μL of the solution was added to each well.
5. ^35S-TBPS was added at a final concentration of 2 nM. The concentration of isotope mother solution was 9.7 μM. After dilution with PBS for 100 times, 6 μL of the diluted isotope solution was added to each well.
6. The plate was incubated at 4° C. for 20 hours.
7. The FilterMate GF/C plate was pre-treated with 0.5% PEI, and incubated at 4° C. for 1 hour.
8. The FilterMate GF/C plate was washed with Universal Harvester twice, 50 ml PBS each time.
9. The reaction solution was transferred to the GF/C plate, and each well was washed 4 times with 900 μL PBS.
10. The washed GF/C plate was placed at 55° C. and dried for 10 minutes.
11. 40 μL of scintillation solution was added to each well, and the CPM value was read with TopCount.
1.2.3 Experimental Data Processing Method:
In the experiment, the CPM (counts per minute) value was read with TopCount. According to the readings of the High control (DMSO) and the Low control (10 μM of the positive compound) experimental groups, the % inhibition was calculated based on the following formula: % Inhibition=100×(CPMHigh control−CPMSample)/(CPMHigh control−CPMLow control)
The IC50 of the compound was calculated according to the following 4-parameter nonlinear logic formula: Y=Bottom+(Top−Bottom)/(1+10^((Log IC50−X)*Hill Slope)),
The effect of the compound of the present invention on the TBPS binding activity was determined by the above test, and the measured IC50 values are shown in Table 1.

[1] = Pharmacokinetic assay in Balb/c mice (plasma and brain tissue); type: in vivo; conditions: male, Balb/c, mouse, in vivo, po, 5 mg/kg; for AUC(0-t): Area under curve AUC0-t; for AUC(0-inf): Area under curve AUC0-∞; for half-life: Half-life t1/2; for MRT: Mean residence time MRT; for Cmax: Plasma concentration Cmax
Protocol: Balb/c mice were used as test animals. The pharmacokinetic behavior in mice (plasma and brain tissue) of the compounds of Example 2, Example 5, Example 7, Example 12, Example 18, Example 23, Example 26, Example 38, Example 41, Example 50, Example 51 and Example 66 orally administrated at a dose of 5 mg/kg was studied.
Each group had 24 male Balb/c mice. After an overnight fast, Balb/c mice were administrated p.o. with the test compound at an administration dose of 5 mg/kg and an administration volume of 10 mL/kg.
0.2 ml of blood was taken from the heart before administration and at 0, 0.5, 1, 2, 4, 6, 8 and 24 hours after administration. The samples were stored in EDTA-K2 tubes, and centrifuged for 6 minutes at 4° C., 6000 rpm to separate the plasma. The plasma samples were stored at −80° C. The mice were sacrificed with CO2, and the whole brain tissue was taken out, weighed, placed in a 2 mL centrifuge tube and stored at −80° C.
1) 160 μL of acetonitrile was added to 40 μL of the plasma sample for precipitation, and then the mixture was centrifuged for 5-20 minutes at 3500×g.
2) 90 μL of acetonitrile containing the internal standard (100 ng/mL) was added to 30 μL of the plasma and brain homogenate samples for precipitation, and then the mixture was centrifuged for 8 minutes at 13000 rpm.
3) 70 μL of the treated supernatant was taken and added to 70 μL of water, and mixed by vortex for 10 minutes. 20 μL of the mixture was taken to analyze the concentration of the test compound by LC/MS/MS. LC/MS/MS analysis instrument: AB Sciex API 4000 Qtrap.
2.6 Liquid Chromatography Analysis • Liquid chromatography condition: Shimadzu LC-20AD pump. • Chromatographic column: Agilent ZORBAX XDB-C18 (50×2.1 mm, 3.5 μm); Mobile phase: Eluent A was 0.1% formic acid in water, and Eluent B was acetonitrile. • Flow rate: 0.4 mL/min • Elution time: 0-4.0 minutes the eluent is as follows:
The main parameters of pharmacokinetics were calculated by WinNonlin 6.1.

ICR mice = experiment: In vivo pharmacodynamic test in the forced swimming model in mice; conditions: 10 mpk p.o.
Protocol: The antidepressant effect of the compound was evaluated by the forced swimming model in mice.
Male ICR mice (25-35 g) were adapted in the test environment for 3 days before the forced swimming test.
According to the test design, the mice were randomly grouped on the day before the test according to body weight, with 12 mice in each group. Before the test, the compounds of each example were administrated intragastrically according to the Tmax thereof in the brain in mice pharmacokinetic test as follows:
1) Model group (0.5% CMC-Na+1% Tween 80 solution, p.o., 10 mL/kg);
2) Compounds of Example 2, Example 5, Example 7, Example 18, Example 23, Example 26 and Example 50 (10 mg/kg, p.o., 10 mL/kg).
When being administrated, the compounds of each example were suspended in 0.5% CMC-Na-1% Tween 80 solution to the desired concentration.
0.5-1 hour after administration, ICR mice were placed in a forced swimming device (transparent glass drum (water depth 18 cm, water temperature 25-26° C.), one mouse per tank) and forced to swim for 6 minutes. The forced swimming device recorded the floating time of the ICR mice during the entire 6 minutes, and the data of the latter four minutes were used for data analysis. The mice were taken out immediately after the swimming test, wiped dry and put back in their original cages.
Note: The criterion for determining the immobility time is that the mouse stops struggling in water and floats, and there are only slight limb movements to keep the head floating on the water.
3.4 Data Analysis Floating time percentage=100*floating time/240 s.

## C[C@@]1(O)CC[C@@]2(F)[C@H](CC[C@H]3[C@@H]4CC[C@H](C(=O)Cn5cc(C(F)(F)F)cn5)[C@@]4(C)CC[C@@H]32)C1 [Example 7, 1-((3R,5R,8S,9S,10R,13S,14S,17S)-10-Fluoro-3-hydroxy-3,13-dimethylhexadecahydro-1H-cyclopenta[a]phenanthren-17-yl)-2-(4-(trifluoromethyl)-1H-pyrazol-1-yl)ethan-1-one]
GABA-A receptor
  IC50: 12.4 nM
[1]
  Area under curve AUC0-t: 5106.0 ng·h/mL
  Area under curve AUC0-∞: 5514.3 ng·h/mL
  Half-life t1/2: 1.89 h
  Mean residence time MRT: 3.37 h
  Plasma concentration Cmax: 1263.3 ng/mL
  AUC(0-t): 3780 ng·h/mL
  AUC(0-inf): 3780 ng·h/mL
  half-life: 1.73 h
  MRT: 3.67 h
  Cmax: 888 ng/mL
[1]; Peak time tmax
  Tmax: 1 h
ICR mice; floating time percentage = 100*floating time/240 s
  Mean (immobility, %): 58.99%
ICR mice; latter four minutes of 6 min swim
  Mean (immobility, s): 141.58 s

## C[C@@]1(O)CC[C@@]2(F)[C@H](CC[C@H]3[C@@H]4CC[C@H](C(=O)Cn5ncnn5)[C@@]4(C)CC[C@@H]32)C1 [Example 12, 1-((3R,5R,8S,9S,10R,13S,14S,17S)-10-Fluoro-3-hydroxy-3,13-dimethylhexadecahydro-1H-cyclopenta[a]phenanthren-17-yl)-2-(2H-tetrazol-2-yl)ethan-1-one]
GABA-A receptor
  IC50: 13.5 nM
[1]
  Mean residence time MRT: 0.73 h
  Tmax: 0.5 h
  MRT: 0.86 h

## Cc1nn(CC(=O)[C@H]2CC[C@H]3[C@@H]4CC[C@@H]5C[C@](C)(O)CC[C@]5(F)[C@H]4CC[C@]23C)cc1C#N [Example 38, 1-(2-((3R,5R,8S,9S,10R,13S,14S,17S)-10-Fluoro-3-hydroxy-3,13-dimethylhexadecahydro-1H-cyclopenta[a]phenanthren-17-yl)-2-oxoethyl)-3-methyl-1H-pyrazole-4-carbonitrile]
GABA-A receptor
  IC50: 34 nM
[1]
  Area under curve AUC0-t: 1216.1 ng·h/mL
  Area under curve AUC0-∞: 1230.2 ng·h/mL
  Half-life t1/2: 1.14 h
  Mean residence time MRT: 1.6 h
  Plasma concentration Cmax: 746.7 ng/mL
  AUC(0-t): 1950 ng·h/mL
  AUC(0-inf): 1970 ng·h/mL
  half-life: 1.08 h
  MRT: 1.7 h
  Cmax: 1110 ng/mL
[1]; Peak time tmax
  Tmax: 0.5 h

## Cc1nnn(CC(=O)[C@H]2CC[C@H]3[C@@H]4CC[C@@H]5C[C@](C)(O)CC[C@]5(F)[C@H]4CC[C@]23C)n1 [Example 41, 1-((3R,5R,8S,9S,10R,13S,14S,17S)-10-Fluoro-3-hydroxy-3,13-dimethylhexadecahydro-1H-cyclopenta[a]phenanthren-17-yl)-2-(5-methyl-2H-tetrazol-2-yl)ethan-1-one]
GABA-A receptor
  IC50: 13.6 nM
[1]
  Mean residence time MRT: 0.91 h
  Plasma concentration Cmax: 625.3 ng/mL
  Tmax: 0.5 h
  MRT: 0.94 h
  Cmax: 1230 ng/mL

## C[C@@]1(O)CC[C@]2(F)C3CC[C@]4(C)[C@@H](C(=O)Cn5cc(C#N)c(Cl)n5)CC[C@H]4[C@@H]3CC[C@@H]2C1 (stereo partly drawn) [Example 51, 3-Chloro-1-(2-((3R,5R,8S,10R,13S,14S,17S)-10-fluoro-3-hydroxy-3,13-dimethylhexadecahydro-1H-cyclopenta[a]phenanthren-17-yl)-2-oxoethyl)-1H-pyrazole-4-carbonitrile]
GABA-A receptor
  IC50: 14.3 nM
[1]
  Area under curve AUC0-t: 1625.9 ng·h/mL
  Area under curve AUC0-∞: 1796.0 ng·h/mL
  Half-life t1/2: 2.19 h
  Mean residence time MRT: 3.28 h
  Plasma concentration Cmax: 512.3 ng/mL
  Tmax: 1 h
  AUC(0-t): 1960 ng·h/mL
  AUC(0-inf): 2080 ng·h/mL
  half-life: 1.93 h
  MRT: 2.65 h
  Cmax: 711 ng/mL
[1]; Peak time tmax
  Tmax: 0.5 h

## C[C@@]1(O)CC[C@@]2(F)[C@H](CC[C@H]3[C@@H]4CC[C@H](C(=O)COc5cnc(C(F)(F)F)nc5)[C@@]4(C)CC[C@@H]32)C1 [Example 66, 1-((3R,5R,8S,9S,10R,13S,14S,17S)-10-Fluoro-3-hydroxy-3,13-dimethylhexadecahydro-1H-cyclopenta[a]phenanthren-17-yl)-2-((2-(trifluoromethyl)pyrimidin-5-yl)oxy)ethan-1-one]
GABA-A receptor
  IC50: 27 nM
[1]
  Half-life t1/2: 3.60 h
  Mean residence time MRT: 5.01 h
  Tmax: 1 h
  half-life: 4.39 h
  MRT: 5.54 h
[1]; Peak time tmax
  Tmax: 0.5 h
